Measurements taken from ChEMBL document CHEMBL1135590, “Design of substrate-based inhibitors of human beta-secretase” (J Med Chem, 2002).
Starred links: 1 amine or outer side, 2 acyl side, 3 side chain; linkers in the order of their positions; H or OH if unused. Non-standard residues stand in square brackets, D forms with d. Residues, ends and D or L forms follow the SMILES beside them. ξ: configuration not given here. LeuΨ(ξCHOHCH2)Val = CC(C)C[C@H](N[*:1])C(O)C[C@H](C(=O)[*:2])C(C)C; X2 = CC(=O)O[C@@H](CC(=O)[*:2])[C@H](CC(C)C)N[*:1]; Sta(3ξ) = CC(C)C[C@H](N[*:1])C(O)CC(=O)[*:2]; X3 = CC(C)C[C@H](N[*:1])[C@H](O)CC(=O)[*:2]; X4 = O=C(CC(O)[C@H](Cc1ccccc1)N[*:1])[*:2]; X5 = O=C(CC(O)[C@H](CC1CCCCC1)N[*:1])[*:2]; Sta = CC(C)C[C@H](N)[C@@H](O)CC(=O)O; X1 = CC(C)CC(N[*:1])C(O)CC(=O)[*:2]; Tle = CC(C)(C)[C@H](N)C(=O)O

These compounds were tested against Beta-secretase 1 (Homo sapiens, UniProt P56817) (assay: Inhibition of human brain beta-secretase, using MBPC125Swe (maltose-binding-protein C-125 Swedish) assay).
Chain of Beta-secretase 1 (P56817 whole entry): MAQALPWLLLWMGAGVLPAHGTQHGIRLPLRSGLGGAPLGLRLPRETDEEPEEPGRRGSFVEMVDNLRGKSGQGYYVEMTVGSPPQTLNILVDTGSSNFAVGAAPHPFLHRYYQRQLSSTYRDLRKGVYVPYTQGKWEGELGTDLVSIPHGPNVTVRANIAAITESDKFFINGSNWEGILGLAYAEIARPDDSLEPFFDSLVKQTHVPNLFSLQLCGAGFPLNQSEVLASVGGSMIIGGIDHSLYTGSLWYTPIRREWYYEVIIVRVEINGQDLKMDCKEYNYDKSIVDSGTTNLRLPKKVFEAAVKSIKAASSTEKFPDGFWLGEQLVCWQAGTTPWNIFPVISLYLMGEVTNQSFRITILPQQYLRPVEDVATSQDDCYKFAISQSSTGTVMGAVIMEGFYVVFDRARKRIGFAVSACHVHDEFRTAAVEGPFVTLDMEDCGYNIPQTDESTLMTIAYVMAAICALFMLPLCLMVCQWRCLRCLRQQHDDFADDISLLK
Assay type: biochemical

Row | Compound | IC50 [µM]
1 | CSCC[C@H](NC(=O)[C@@H](NC(C)=O)C(C)C)C(=O)NC(CC(C)C)C(O)CC(=O)N[C@H](C(=O)N[C@@H](C)C(=O)N[C@@H](CCC(=O)O)C(=O)N[C@@H](Cc1ccccc1)C(=O)O)[C@H](C)O (some centres not stated) | 100
2 | CSCC[C@H](NC(=O)[C@@H](NC(C)=O)C(C)C)C(=O)NC(CC(C)C)C(O)CC(=O)N1CCC[C@@H]1C(=O)N[C@@H](C)C(=O)N[C@@H](CCC(=O)O)C(=O)N[C@@H](Cc1ccccc1)C(=O)O (some centres not stated) | > 200
3 | CSCC[C@H](NC(=O)[C@@H](NC(C)=O)C(C)C)C(=O)NC(CC(C)C)C(O)CC(=O)N[C@H](C(=O)O)C(C)C (some centres not stated) | > 100
4 | CSCC[C@H](NC(=O)[C@@H](NC(C)=O)C(C)C)C(=O)N[C@@H](CC(C)C)C(O)C[C@H](C(=O)N[C@@H](C)C(=O)N[C@@H](CCC(=O)O)C(=O)N[C@@H](Cc1ccccc1)C(=O)O)C(C)C (some centres not stated) (Ac-VM[LeuΨ(ξCHOHCH2)Val]AEF-OH) | 0.02
5 | CSCC[C@H](NC(=O)[C@@H](NC(C)=O)C(C)C)C(=O)N[C@@H](CC(C)C)C(O)CC(=O)N[C@@H](CC(=O)O)C(=O)N[C@@H](C)C(=O)N[C@@H](CCC(=O)O)C(=O)N[C@@H](C)C(=O)O (some centres not stated) (Ac-VM[Sta(3ξ)]DAEA-OH) | > 100
6 | CSCC[C@H](NC(=O)[C@@H](NC(C)=O)C(C)C)C(=O)N[C@@H](CC(C)C)C(O)CC(=O)N[C@H](C(=O)N[C@@H](C)C(=O)N[C@@H](C)C(=O)N[C@@H](Cc1ccccc1)C(=O)O)C(C)C (some centres not stated) (Ac-VM[Sta(3ξ)]VAAF-OH) | 2
7 | CSCC[C@H](NC(=O)[C@@H](NC(C)=O)C(C)C)C(=O)N[C@@H](CC(C)C)C(O)CC(=O)N[C@H](C(=O)N[C@@H](C)C(=O)N[C@@H](CCC(=O)O)C(=O)N[C@@H](C)C(=O)O)C(C)C (some centres not stated) (Ac-VM[Sta(3ξ)]VAEA-OH) | 1.2
8 | CSCC[C@H](NC(=O)[C@@H](NC(C)=O)C(C)C)C(=O)N[C@@H](CC(C)C)C(O)CC(=O)N[C@H](C(=O)N[C@@H](C)C(=O)N[C@@H](CCC(=O)O)C(=O)N[C@@H](C)C(=O)O)C(C)(C)C (some centres not stated) (Ac-VM[Sta(3ξ)][Tle]AEA-OH) | 20
9 | CSCC[C@H](NC(=O)[C@@H](NC(C)=O)C(C)C)C(=O)NC(CC(C)C)C(O)CC(=O)N[C@@H](C)C(=O)N[C@@H](C)C(=O)N[C@@H](CCC(=O)O)C(=O)N[C@@H](Cc1ccccc1)C(=O)O (some centres not stated) (Ac-VM[X1]AAEF-OH) | 5
10 | CSCC[C@H](NC(=O)[C@@H](NC(C)=O)C(C)C)C(=O)NC(CC(C)C)C(O)CC(=O)N[C@@H](Cc1ccccc1)C(=O)N[C@@H](C)C(=O)N[C@@H](CCC(=O)O)C(=O)N[C@@H](Cc1ccccc1)C(=O)O (some centres not stated) (Ac-VM[X1]FAEF-OH) | 15
11 | CSCC[C@H](NC(=O)[C@@H](NC(C)=O)C(C)C)C(=O)NC(CC(C)C)C(O)CC(=O)N[C@H](C(=O)N[C@@H](C)C(=O)O)C(C)C (some centres not stated) (Ac-VM[X1]VA-OH) | > 100
12 | CSCC[C@H](NC(=O)[C@@H](NC(C)=O)C(C)C)C(=O)NC(CC(C)C)C(O)CC(=O)N[C@H](C(=O)N[C@@H](C)C(=O)N[C@@H](CCC(=O)O)C(=O)O)C(C)C (some centres not stated) (Ac-VM[X1]VAE-OH) | 1
13 | CSCC[C@H](NC(=O)[C@@H](NC(C)=O)C(C)C)C(=O)NC(CC(C)C)C(O)CC(=O)N[C@H](C(=O)N[C@@H](C)C(=O)N[C@@H](CCC(=O)O)C(=O)N[C@@H](Cc1ccccc1)C(=O)O)C(C)C (some centres not stated) (Ac-VM[X1]VAEF-OH) | 0.3
14 | CSCC[C@H](NC(=O)[C@@H](NC(C)=O)C(C)C)C(=O)N[C@@H](Cc1ccccc1)C(O)CC(=O)N[C@H](C(=O)N[C@@H](C)C(=O)N[C@@H](CCC(=O)O)C(=O)N[C@@H](Cc1ccccc1)C(=O)O)C(C)C (some centres not stated) (Ac-VM[X4]VAEF-OH) | 0.5
15 | CSCC[C@H](NC(=O)[C@@H](NC(C)=O)C(C)C)C(=O)N[C@@H](CC1CCCCC1)C(O)CC(=O)N[C@H](C(=O)N[C@@H](C)C(=O)N[C@@H](CCC(=O)O)C(=O)N[C@@H](Cc1ccccc1)C(=O)O)C(C)C (some centres not stated) (Ac-VM[X5]VAEF-OH) | 5
16 | CC(=O)N[C@H](C(=O)N[C@@H](CC(N)=O)C(=O)NC(CC(C)C)C(O)CC(=O)N[C@H](C(=O)N[C@@H](C)C(=O)N[C@@H](CCC(=O)O)C(=O)N[C@@H](Cc1ccccc1)C(=O)O)C(C)C)C(C)C (some centres not stated) (Ac-VN[X1]VAEF-OH) | 0.5
17 | CC(C)C[C@H](NC(=O)[C@H](CC(N)=O)NC(=O)[C@H](C)NC(=O)[C@@H](N)CCC(=O)O)C(O)CC(=O)N[C@H](C(=O)N[C@@H](C)C(=O)N[C@@H](CCC(=O)O)C(=O)N[C@@H](Cc1ccccc1)C(=O)O)C(C)C (some centres not stated) (H-EAN[Sta(3ξ)]VAEF-OH) | 2.5
18 | CC(C)C[C@H](NC(=O)[C@H](CC(N)=O)NC(=O)[C@@H](NC(=O)[C@@H](N)CCC(=O)O)C(C)C)C(O)CC(=O)N[C@H](C(=O)N[C@@H](C)C(=O)N[C@@H](CCC(=O)O)C(=O)N[C@@H](Cc1ccccc1)C(=O)O)C(C)C (some centres not stated) (H-EVN[Sta(3ξ)]VAEF-OH) | 0.04
19 | CC[C@H](C)[C@H](NC(=O)[C@H](CCC(=O)O)NC(=O)[C@H](CCC(=O)O)NC(=O)[C@@H](NC(=O)[C@@H](N)CCCCN)[C@@H](C)O)C(=O)N[C@@H](CO)C(=O)N[C@@H](CCC(=O)O)C(=O)N[C@H](C(=O)N[C@@H](CC(N)=O)C(=O)N[C@@H](CC(C)C)[C@@H](O)CC(=O)N[C@@H](C)C(=O)N[C@@H](C)C(=O)N[C@@H](CCC(=O)O)C(=O)N[C@@H](Cc1ccccc1)C(=O)O)C(C)C (H-KTEEISEVN[Sta]AAEF-OH) | 0.5
20 | CC[C@H](C)[C@H](NC(=O)[C@H](CCC(=O)O)NC(=O)[C@H](CCC(=O)O)NC(=O)[C@@H](NC(=O)[C@@H](N)CCCCN)[C@@H](C)O)C(=O)N[C@@H](CO)C(=O)N[C@@H](CCC(=O)O)C(=O)N[C@H](C(=O)N[C@@H](CC(N)=O)C(=O)N[C@@H](CC(C)C)[C@@H](O)CC(=O)N[C@@H](CC(=O)O)C(=O)N[C@@H](C)C(=O)N[C@@H](CCC(=O)O)C(=O)N[C@@H](Cc1ccccc1)C(=O)O)C(C)C (H-KTEEISEVN[Sta]DAEF-OH) | 40
21 | CC[C@H](C)[C@H](NC(=O)[C@H](CCC(=O)O)NC(=O)[C@H](CCC(=O)O)NC(=O)[C@@H](NC(=O)[C@@H](N)CCCCN)[C@@H](C)O)C(=O)N[C@@H](CO)C(=O)N[C@@H](CCC(=O)O)C(=O)N[C@H](C(=O)N[C@@H](CC(N)=O)C(=O)N[C@@H](CC(C)C)[C@@H](O)CC(=O)N[C@@H](CC(=O)O)C(=O)N[C@@H](C)C(=O)N[C@@H](CCC(=O)O)C(=O)N[C@@H](Cc1ccccc1)C(=O)N[C@@H](CCCN=C(N)N)C(=O)O)C(C)C (H-KTEEISEVN[Sta]DAEFR-OH) | 60

Row | Compound | IC50 [µM]
22 | CC[C@H](C)[C@H](NC(=O)[C@H](CCC(=O)O)NC(=O)[C@H](CCC(=O)O)NC(=O)[C@@H](NC(=O)[C@@H](N)CCCCN)[C@@H](C)O)C(=O)N[C@@H](CO)C(=O)N[C@@H](CCC(=O)O)C(=O)N[C@H](C(=O)N[C@@H](CC(N)=O)C(=O)N[C@@H](CC(C)C)[C@@H](O)CC(=O)N[C@H](C(=O)N[C@@H](C)C(=O)N[C@@H](CCC(=O)O)C(=O)N[C@@H](Cc1ccccc1)C(=O)O)C(C)C)C(C)C (H-KTEEISEVN[Sta]VAEF-OH) | 0.03
23 | CC[C@H](C)[C@H](NC(=O)[C@H](CCC(=O)O)NC(=O)[C@H](CCC(=O)O)NC(=O)[C@@H](NC(=O)[C@@H](N)CCCCN)[C@@H](C)O)C(=O)N[C@@H](CO)C(=O)N[C@@H](CCC(=O)O)C(=O)N[C@H](C(=O)N[C@@H](CC(N)=O)C(=O)N[C@@H](CC(C)C)[C@H](CC(=O)N[C@@H](CC(=O)O)C(=O)N[C@@H](C)C(=O)N[C@@H](CCC(=O)O)C(=O)N[C@@H](Cc1ccccc1)C(=O)O)OC(C)=O)C(C)C (H-KTEEISEVN[X2]DAEF-OH) | > 200
24 | CC[C@H](C)[C@H](NC(=O)[C@H](CCC(=O)O)NC(=O)[C@H](CCC(=O)O)NC(=O)[C@@H](NC(=O)[C@@H](N)CCCCN)[C@@H](C)O)C(=O)N[C@@H](CO)C(=O)N[C@@H](CCC(=O)O)C(=O)N[C@H](C(=O)N[C@@H](CC(N)=O)C(=O)N[C@@H](CC(C)C)[C@H](O)CC(=O)N[C@@H](CC(=O)O)C(=O)N[C@@H](C)C(=O)N[C@@H](CCC(=O)O)C(=O)N[C@@H](Cc1ccccc1)C(=O)O)C(C)C (H-KTEEISEVN[X3]DAEF-OH) | > 200
25 | CC(C)CC(NC(=O)[C@@H](N)CC(N)=O)C(O)CC(=O)N[C@H](C(=O)N[C@@H](C)C(=O)N[C@@H](CCC(=O)O)C(=O)N[C@@H](Cc1ccccc1)C(=O)O)C(C)C (some centres not stated) (H-N[X1]VAEF-OH) | > 150
26 | CC(C)C[C@H](NC(=O)[C@H](CC(N)=O)NC(=O)[C@@H](N)C(C)C)C(O)CC(=O)N[C@H](C(=O)N[C@@H](C)C(=O)N[C@@H](CCC(=O)O)C(=O)N[C@@H](Cc1ccccc1)C(=O)O)C(C)C (some centres not stated) (H-VN[Sta(3ξ)]VAEF-OH) | 9
27 | H-TNIKTEEISEVNADAEFR-OH | > 200
28 | H-TNIKTEEISEVNEDAEFR-OH | > 200
29 | H-TNIKTEEISEVNFDAEFR-OH | > 200
30 | H-TNIKTEEISEVNGDAEFR-OH | > 200
31 | H-TNIKTEEISEVNHDAEFR-OH | > 200
32 | H-TNIKTEEISEVNLAAEFR-OH | > 200
33 | H-TNIKTEEISEVNLDAEFR-OH | > 200
34 | H-TNIKTEEISEVNLFAEFR-OH | 40
35 | H-TNIKTEEISEVNLGAEFR-OH | 119
36 | H-TNIKTEEISEVNLKAEFR-OH | 40
37 | H-TNIKTEEISEVNLLAEFR-OH | 45
38 | H-TNIKTEEISEVNLVAEFR-OH | 3
39 | H-TNIKTEEISEVNMDAEFR-OH | > 200
40 | H-TNIKTEEISEVNRDAEFR-OH | > 200
41 | H-TNIKTEEISEVNTDAEFR-OH | > 200
42 | H-TNIKTEEISEVNVDAEFR-OH | > 200
